Results on 1 compound are retold here after patent US20230391868A1, “COMPOSITIONS FOR AND METHODS OF TREATING CANCER” (The George Washington University, priority 2022, published 2023).

The test system of test [1] is A31A7 macrophages and BMDMs. Nature of the test: Macrophage M1/M2 marker gene expression by qRT-PCR. Format: cell-based, mouse. As to the method:
Bone marrow-derived macrophages were isolated from the femurs and tibias of wild-type C57/Bl6, HDAC6 knockout (C57BL/6J-Hdac6em2Lutzy/J, 029318, Jackson Laboratory), or UBC-GFP (C57BL/6-Tg(UBC-GFP)30Scha/J, 004353, Jackson Laboratory). Isolated bone marrow cells were cultured in RPMI 1640 complete medium with 10% FBS, 1% NEAA, and 1% penicillin-streptomycin in 5% CO2 at 37° C. Medium was supplemented with murine recombinant M-CSF (20 ng/mL, 576404, Biolegend) to differentiate monocytes into macrophages. Three days after bone marrow isolation, undifferentiated and floating cells were washed with PBS and replaced with fresh RPMI media. […]
Macrophages were polarized to M1-like phenotype using 50 ng/mL of interferon gamma (IFNγ, 575306, Biolegend) and 100 ng/mL of bacterial lipopolysaccharide (LPS, L2880, Sigma Aldrich, St. Louis, MO) for 24 hours. To polarize macrophages towards the M2-like phenotype, macrophages were stimulated with 20 ng/mL of IL-4 (214-14, PeproTech) and 20 ng/mL of IL-13 (575904, Biolegend). THP1 monocytes were treated with 5 ng/mL of phorbol 12-myristate 13-acetate (PMA) to induce differentiation into macrophages. Once converted to macrophages, media was replaced to remove PMA prior to treatment and/or polarization. Polarization towards M1 and M2 phenotypes was performed with respective recombinant human cytokines from PeproTech: 50 ng/mL of IFNγ (300-02), 20 ng/mL IL-4 (200-04), and 20 ng/mL IL-13 (200-13). 100 ng/mL LPS was also used to polarize toward the M1 phenotype. 3. In vivo Studies.
qRT-PCR: Total RNA was extracted from cells using the Trizol reagent according to manufacturer's instructions (ThermoFisher Scientific, 15596018). Samples were then processed immediately or stored at −80° C. RNA was quantified using a NanoDrop One Spectrophotometer (ThermoFisher Scientific). The 260/280 ratios were routinely over 1.8. Sample cDNA was produced using the iScript cDNA synthesis kit (Bio-Rad, 1708891). Target mRNA was quantified using MyIQ single-color real-time PCR detection system from Bio-Rad (Bio-Rad, Hercules, CA) and iQ SYBR green Supermix (Bio-Rad, 1708882). The following primers were synthesized by Invitrogen (Waltham, MA) with sequences designed by Origene (Rockville, MD): mouse R-actin (MP200232), mouse Nos2 (MP208933), mouse MRC1 (MP207800), human R-actin (HP204660), human IL-1β (HP200544), human MRC1 (HP206121), human NOS2 (HP200591), human CD209 (HP214086), mouse SIRPα (MP215450), mouse LRP1 (MP207604), human LRP1 (HP206040), mouse MFGE8 (MP208190), human MFGE8 (HP225757), mouse CD36 (MP201923), human CD36 (HP200058), and mouse CD47 (MP201932). Primers for mouse ARG-1 (PPM31770C) and human SIRPα (QT01031051) were purchased from Qiagen (Hilden, Germany). Human CD47 primer sequences were obtained from Sudo T, et al and are 5′-[…]-3′ (sense) (SEQ ID NO:01) and 5′-[…]-3′ (antisense) (SEQ ID NO:02) (Sudo T, et al. (2017) Oncol. Lett. 14:801-809). Human CD86 primer sequences are 5′-[…]-3′ (sense) (SEQ ID NO:03) and 5′-[…]-3′ (antisense) (SEQ ID NO:04). Mouse CD80 sequences are 5′-[…]-3′ (sense) (SEQ ID NO:05) and 5′-[…]-3′ (antisense) (SEQ ID NO:06). Cycling conditions were set as per manufacturer's instructions. Single product amplification was confirmed by melting curve analysis. Quantification is expressed in arbitrary units and target mRNA levels were normalized to R-actin expression.

The test system of test [2] is SM1 melanoma cells. Nature of the test: Flow cytometry-based phagocytosis assay, BMDMs co-cultured with SM1 cells. Format: cell-based, mouse. Particulars: NextA treated vs untreated macrophages (FIG. 4). As to the method:
To evaluate phagocytosis by flow cytometry, SM1 melanoma cells were co-cultured with A3.1A7 cells or BMDMs derived from wild-type C57/Bl6 mice at a 2:1 ratio for 2 hr. or 4 hr. in serum-free media. Twenty-four (24) hours prior to co-culture, macrophages were polarized to their respective phenotypes as previously described in the presence or absence of NextA, and melanoma cells were untreated or treated with NextA. On the day of the co-culture, melanoma cells were stained with 1 μM of CellTrace™ CFSE Cell Proliferation Kit (ThermoFisher, C34554) and were washed extensively to remove excess dye. Phagocytosis assays were carried out in the presence of anti-mouse CD47 (clone miap301, 127502, Biolegend, San Diego, CA) and its respective isotype control (IgG, 400502, Biolegend), or anti human CD47 (clone CC2C6, 323102, Biolegend) or isotype control (MOPC-21, BE0083, Biolegend) at 25 μg/mL. Co-culture was set up in non-cell culture treated 96 U-well plates. […]
Flow cytometry data was acquired a BD FACS Celesta Cell Analyzer, and data analysis was performed with FlowJo software version 10.3. Phagocytosis was determined as the percentage of CFSE+F4/80+ or CFSE+ CD11b+ cells out of total F4/80+ or total CD11b+ cells. […]

The structures appear in SMILES notation.

Turning to `CCCCN(Cc1ccc(C(=O)NO)cc1)C(=O)Nc1ccccc1` [NextA, Nexturastat A], in test [1] (A31A7, 5 μM of NextA), the “phenotypic changes in both macrophage polarizations” value is reported as “elicited observable phenotypic changes”. Further, in test [1] (A31A7, different concentrations of NextA, qRT-PCR (FIG. 7B)), the “expression of Cd80 in M1 polarized macrophages” value is given as “concentration-dependent effect”. For the same compound, the “expression of Arg1 in M2 polarized macrophages” value in test [1] (A31A7, different concentrations of NextA, qRT-PCR (FIG. 7C)) is “concentration-dependent effect”. In test [1] (A31A7 and BMDMs polarized to M1 or M1(IFNγ), 5 μM (FIG. 1A)), the “Nos2 and Cd80 at the transcriptional level” value is reported as “tended to significantly upregulate”. Besides, the “expression of M2-associated markers Arg1 and Mrc1” value in test [1] (A31A7 cells and BMDMs, M2, qRT-PCR, 5 μM (FIG. 1C)) was “significantly downregulated”. The “phagocytic capacity of macrophages” value in test [2] is recorded as “enhanced the phagocytic capacity”.
